US11760773B2, “Small molecule drug conjugates of gemcitabine monophosphate” (MaveriX Oncology, Inc., priority 2018, dated 2023)

Columns and labels:
[1] = Gemcitabine normal tissue and plasma PK in CD-1 mice (study e); type: in vivo; conditions: male CD-1 mice, iv gemcitabine, FIG. 6
Protocol: Objectives: to determine the normal tissue pharmacokinetics, distribution, and stability of gemcitabine in select excretory organs and plasma following a single intravenous infusion administration of gemcitabine at 10.5 mg/kg in male CD-1 mice.
PK measurements: determine PK parameters C0, CL, Vdss, Cmax, tmax, t1/2, AUC(0-t), AUC(0-inf), MRT(0-t), MRT(0-inf) for gemcitabine

[2] = Metabolic stability in liver hepatocytes, across species; type: in vitro ADME; conditions: mouse, dog, monkey, rat highest, human lowest, read-out: intrinsic clearance values Cint
[3] = Mouse liver S9 stability; type: in vitro ADME; conditions: for microsomal CLint: mouse
[4] = Int 1-4 normal tissue and plasma PK in CD-1 mice (study d); type: in vivo; conditions: male CD-1 mice, iv Int 1-4, FIG. 5
Protocol: Objectives: to compare the normal tissue pharmacokinetics, distribution, and stability of Int 1-4 in excretory organs following a single intravenous infusion administration of Int 1-4 at 20 mg/kg in male CD-1 mice.
PK measurements: compare PK parameters C0, CL, Vdss, Cmax, tmax, t1/2, AUC(0-t), AUC(0-inf), MRT(0-t), MRT(0-inf) for Int 1-4

[5] = Dog liver S9 stability; type: in vitro ADME; conditions: for microsomal CLint: dog
[6] = Monkey liver S9 stability; type: in vitro ADME; conditions: for microsomal CLint: monkey
[7] = Liver microsomal stability, dog; type: in vitro ADME; conditions: dog liver microsomes

With Nc1ccn([C@@H]2O[C@H](CO)[C@@H](O)C2(F)F)c(=O)n1 [Gemcitabine, gemcitabine] the “fate in plasma and normal tissue” value [1] was “deaminated to dFdU”.
With COc1cc(OC)c2oc(COC(=O)Nc3ccn([C@@H]4O[C@H](CO)[C@@H](O)C4(F)F)c(=O)n3)cc2c1 [Int 1-4, (5,7-di(methoxy)benzofuran-2-yl)methyl (1-((2R,4R,5R)-3,3-difluoro-4-hydroxy-5-(hydroxymethyl)tetrahydrofuran-2-yl)-2-oxo-1,2-dihydropyrimidin-4-yl)carbamate] the microsomal CLint [2] was 3 to 8 µL/min/mg, the “Slope Mean ± SE” value ([3]; mouse liver S9) was −0.00317 ± 0.000413 and the half-life ([3]; mouse liver S9, read-out: t1/2 Mean ± SE) was 219 ± 28.5 min. The microsomal CLint ([3]; liver S9, mouse liver S9, summary, read-out: S9 intrinsic clearance Clint) was under 2.5 µL/min/mg, the microsomal CLint ([3]; liver S9, mouse liver S9, text value, read-out: intrinsic clearance value) was 1.27 µL/min/mg and the microsomal CLint ([3]; liver S9, mouse liver S9, read-out: CLint Mean ± SE) was 1.27 ± 0.165 µL/min/mg. For the same compound, the “stability in plasma and major excretory organs (liver, kidney)” value [4] was “stable”, the “Slope Mean ± SE” value ([5]; dog liver S9) was −0.005558 ± 0.000749 and the half-life ([5]; dog liver S9, read-out: t1/2 Mean ± SE) was 125 ± 16.8 min. It also gave an intrinsic clearance value ([5]; dog liver S9 experiment) of under 2.5 μL/min/mg protein, a microsomal CLint ([5]; liver S9, dog liver S9, read-out: CLint Mean ± SE) of 2.22 ± 0.299 µL/min/mg and a microsomal CLint ([5]; liver S9, dog liver S9 experiment, read-out: intrinsic clearance value) of 2.2 µL/min/mg. The “Slope Mean ± SE” value ([6]; monkey liver S9) was −0.03881 ± 0.002089, the half-life ([6]; monkey liver S9, read-out: t1/2 Mean ± SE) was 17.9 ± 1 min and the microsomal CLint ([6]; liver S9, monkey liver S9, summary, read-out: S9 intrinsic clearance Clint) was under 2.5 µL/min/mg. It also gave a microsomal CLint ([6]; liver S9, monkey liver S9, read-out: CLint Mean ± SE) of 15.5 ± 0.836 µL/min/mg, a microsomal CLint ([6]; liver S9, monkey liver S9 experiment, read-out: intrinsic clearance value) of 15.5 µL/min/mg and a half-life [7] of 144 min. For the same compound, the microsomal CLint [7] was 9.63 µL/min/mg, the “Compound Remaining (% of 0 min) 0 min” value ([7]; 0 min) was 100 % of 0 min and the “Compound Remaining (% of 0 min) 5 min” value ([7]; 5 min) was 97.1 % of 0 min. The “Compound Remaining (% of 0 min) 15 min” value ([7]; 15 min) was 90.8 % of 0 min, the “Compound Remaining (% of 0 min) 30 min” value ([7]; 30 min) was 85.7 % of 0 min and the “Compound Remaining (% of 0 min) 45 min” value ([7]; 45 min) was 80.4 % of 0 min. The “Compound Remaining (% of 0 min) control” value ([7]; control) was 94.5 % of 0 min.
